Laboratory results: PubChem BioAssay AID328 (DTP/NCI, 2004)
“And” between values parts separate entries of the source, which are not always exact repeats. Equal entries are not always repeated. Toxic doses and inconclusive results are not listed. Rule for the calls: active = survival T/C of 150% or more; inactive = T/C below 125% in these data.

System: BDF1 mice, P388 leukemia ip, median survival T/C
Test: NCI In Vivo Anticancer Drug Screen. Data for tumor model P388 Leukemia (intraperitoneal) in B6D2F1 (BDF1) mice
Settings: endpoint: median survival time, higher = longer survival
Procedure, shortened: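 Read-out is survival of treated animals expressed relative to the vehicle group, as a T/C ratio.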

[1] = dose: 100.0 mg/kg/injection, schedule: Q01DX001 (ip), vehicle: Klucel (hydroxypropylcellulose) (HPC)
[2] = dose: 50.0 mg/kg/injection, schedule: Q01DX009 (ip), vehicle: saline with Tween-80
[3] = dose: 100.0 mg/kg/injection, schedule: Q01DX009 (ip), vehicle: saline with Tween-80
[4] = dose: 200.0 mg/kg/injection, schedule: Q01DX009 (ip), vehicle: saline with Tween-80

Measured: T/C

O=[N+]([O-])c1ccc(CCSCCc2ccc([N+](=O)[O-])cc2)cc1
inactive: dose: 50.0 mg/kg/injection, schedule: Q01DX005 (ip), vehicle: Klucel (hydroxypropylcellulose) (HPC) 104 % of control | dose: 100.0 mg/kg/injection, schedule: Q01DX005 (ip), vehicle: Klucel (hydroxypropylcellulose) (HPC) 97 % of control | dose: 200.0 mg/kg/injection, schedule: Q01DX005 (ip), vehicle: Klucel (hydroxypropylcellulose) (HPC) 94 % of control

COc1ccccc1Oc1ccc(N=Cc2ccc(C)cc2)cc1
inactive: dose: 12.0 mg/kg/injection, schedule: Q01DX001 (ip), vehicle: Klucel (hydroxypropylcellulose) (HPC) 100 % of control | dose: 25.0 mg/kg/injection, schedule: Q01DX001 (ip), vehicle: Klucel (hydroxypropylcellulose) (HPC) 104 % of control | dose: 50.0 mg/kg/injection, schedule: Q01DX001 (ip), vehicle: Klucel (hydroxypropylcellulose) (HPC) 95 % of control | [1] 100 % of control

COc1ccc(OC)c2c(/C=C/c3ccc(N(C)C)cc3)ccnc12
inactive: dose: 12.5 mg/kg/injection, schedule: Q01DX009 (ip), vehicle: saline with Tween-80 108 % of control | dose: 25.0 mg/kg/injection, schedule: Q01DX009 (ip), vehicle: saline with Tween-80 103 % of control | [2] 94 % of control and 110 % of control | [3] 103 % of control | [4] 91 % of control

COc1ccc(CN2CCCN(Cc3ccc(OC)cc3)S2)cc1
inactive: [2] 92 % of control | [3] 101 % of control | [4] 110 % of control

CC1CCC2N(C1)CC1C(C(O)C(O)C3(O)C1CC14OC5(O)C(O)CCC1(C)C5CC(O)C34)C2(C)O (stereo not drawn)
inactive: dose: 25.0 mg/kg/injection, schedule: Q01DX010 (ip), vehicle: carboxymethylcellulose (CMC) 100 % of control | dose: 50.0 mg/kg/injection, schedule: Q01DX010 (ip), vehicle: carboxymethylcellulose (CMC) 115 % of control | dose: 100.0 mg/kg/injection, schedule: Q01DX010 (ip), vehicle: carboxymethylcellulose (CMC) 110 % of control

O=C(O)CS(=O)c1ccc2c3c(cccc13)C(=O)c1ccccc1-2 (stereo not drawn)
inactive: dose: 50.0 mg/kg/injection, schedule: Q01DX005 (ip), vehicle: saline with Tween-80 87 % of control | dose: 100.0 mg/kg/injection, schedule: Q01DX005 (ip), vehicle: saline with Tween-80 94 % of control | dose: 200.0 mg/kg/injection, schedule: Q01DX005 (ip), vehicle: saline with Tween-80 94 % of control

CCCCCCCCCCCCCC(=O)[O][Sn]([CH2]CCC)([CH2]CCC)[O]C(=O)CCCCCCCCCCCCC
inactive: dose: 0.78 mg/kg/injection, schedule: Q04DX003 (ip), vehicle: other 104 % of control | dose: 1.56 mg/kg/injection, schedule: Q04DX003 (ip), vehicle: other 109 % of control | dose: 3.13 mg/kg/injection, schedule: Q04DX003 (ip), vehicle: other 113 % of control

COc1cc(C2c3cc4c(cc3C(O)C3COC(=O)C23)OCO4)cc(O)c1OC (stereo not drawn)
inactive: dose: 2.0 mg/kg/injection, schedule: Q01DX009 (ip), vehicle: saline 120 % of control | dose: 4.0 mg/kg/injection, schedule: Q01DX009 (ip), vehicle: saline 105 % of control

CCOC(=O)CCCl
inactive: [1] 95 % of control | dose: 100.0 mg/kg/injection, schedule: Q04DX003 (ip), vehicle: Klucel (hydroxypropylcellulose) (HPC) 100 % of control | dose: 200.0 mg/kg/injection, schedule: Q01DX001 (ip), vehicle: Klucel (hydroxypropylcellulose) (HPC) 104 % of control | dose: 200.0 mg/kg/injection, schedule: Q04DX003 (ip), vehicle: Klucel (hydroxypropylcellulose) (HPC) 104 % of control | dose: 400.0 mg/kg/injection, schedule: Q01DX001 (ip), vehicle: Klucel (hydroxypropylcellulose) (HPC) 91 % of control | dose: 400.0 mg/kg/injection, schedule: Q04DX003 (ip), vehicle: Klucel (hydroxypropylcellulose) (HPC) 100 % of control

OC(C#CC(O)c1ccccc1)c1ccccc1 (stereo not drawn)
inactive: dose: 100.0 mg/kg/injection, schedule: Q04DX003 (ip), vehicle: saline 100 % of control | dose: 200.0 mg/kg/injection, schedule: Q04DX003 (ip), vehicle: saline 104 % of control

NNc1ccc([N+](=O)[O-])c2[nH][nH]c(=O)c12
inactive: [2] 105 % of control | [3] 107 % of control | [4] 107 % of control

Oc1ccc(Nc2c3ccccc3nc3c2ccc2ccccc23)cc1CN(CCCl)CCCl
inactive: dose: 0.08 mg/kg/injection, schedule: Q01DX009 (ip), vehicle: saline 100 % of control | dose: 0.12 mg/kg/injection, schedule: Q01DX009 (ip), vehicle: saline 90 % of control | dose: 0.52 mg/kg/injection, schedule: Q01DX009 (ip), vehicle: saline 110 % of control | dose: 1.02 mg/kg/injection, schedule: Q01DX009 (ip), vehicle: saline 100 % of control | dose: 1.17 mg/kg/injection, schedule: Q01DX009 (ip), vehicle: saline 100 % of control | dose: 1.56 mg/kg/injection, schedule: Q01DX009 (ip), vehicle: saline 109 % of control | dose: 2.1 mg/kg/injection, schedule: Q04DX003 (ip), vehicle: saline 100 % of control
active: dose: 0.51 mg/kg/injection, schedule: Q01DX009 (ip), vehicle: saline 168 % of control | dose: 1.1 mg/kg/injection, schedule: Q01DX009 (ip), vehicle: saline 163 % of control | dose: 1.65 mg/kg/injection, schedule: Q04DX003 (ip), vehicle: saline 159 % of control | dose: 2.34 mg/kg/injection, schedule: Q01DX009 (ip), vehicle: saline 168 % of control
